Measured values from patent publication US8391959B2, “Composition for improving efficiency of drug delivery” (Tel HaShomer Medical Research Infrastructure and Services …, priority 2004, dated 2013).

Tested on: striatum of normal Sprague-Dawley (SD) rats
Test: Cytotoxic tissue response after CED in rat striatum, T2-weighted and diffusion-weighted MRI 24 hours post treatment
Description: The resultant solution was infused into the striatum of normal Sprague-Dawley (SD) rats (males, 250-300 grams). T1-weighted MR images were acquired immediately post treatment to assess the extent of convection. Additionally, T2-weighted and diffusion-weighted MR images were acquired 24 hours post treatment to assess the response of the tissue and its correlation to the extent of convection.
In order to obtain a wide range in volumes of distribution, the infusion times were varied between 17 to 60 minutes. 13 rats were treated with Carboplatin (4 mg/ml, 17 minutes infusion). In order to obtain a wide range in volumes of distributions, in 6 out of those, the composition viscosity was increased by adding sucrose to the solution prior to infusion (Carboplatin 4 mg/ml, sucrose concentration-12%).
Early assessment of tissue response was performed using diffusion-weighted and T2-weighted MR images. The diffusion-weighted images were obtained by acquiring conventional T2-weighted images with the addition of diffusion-weighting gradients that filter out the signal from high mobility water molecules and sensitize the MR images to molecular diffusion/mobility [Stejskal et al. supra]. Regions of accumulated liquids or severe necrosis appear dark in diffusion-weighted MRI, while regions of slow water accumulation, such as in the case of intracellular water accumulation or inflammation, appear brighter.
The diffusion-weighted and T2-weighted MR images were obtained by a General Electric™ 3.0 T MRI machine with 10.4M 1× operating system, gradients intensity of up to 4.3 Gauss/cm and line scan diffusion-weighted imaging [Gudbjartsson et al., “Line scan diffusion imaging”, Magn. Reson. Med. 36:509-519, 1996] acquisition software package. Specially designed animal volume coils of 5 cm diameter were used for data acquisition.
The T2-weighted fast spin echo (FSE) MR images were acquired with: 256×128 matrix, FOV=12×9 cm^2, TR=3000 ms, TE=90 ms, and 2 mm slices with 0.5 mm gap. […]

Question: `N.N.O=C([O-])C1(C(=O)[O-])CCC1.[Pt+2]` [Carboplatin] was tested. Which “enhancement in diffusion-weighted MR images” value (cases of efficient convection, 24 hours post treatment) did it give?
Answer: significant enhancement

Question: Which results are given for `CC(=O)O[C@H]1C(=O)[C@@]2(C)[C@H]([C@H](OC(=O)c3ccccc3)[C@]3(O)C[C@H](OC(=O)[C@H](O)[C@@H](NC(=O)c4ccccc4)c4ccccc4)C(C)=C1C3(C)C)[C@]1(OC(C)=O)CO[C@@H]1C[C@@H]2O` [Taxol®, Taxol]?
Answer: histology of en block-resected lesion from rat brain (rat, in vivo): Severe damage covering most of the striatum is seen with widespread necrosis and early gliotic changes; tissue toxicity (rat, in vivo): severe tissue toxicity
